Literature values in publication PMC10323144, “Garbage in, garbage out: how reliable training data improved a virtual screening approach against SARS-CoV-2 MPro” (Frontiers in Pharmacology, 2023).

Test system: MPro
Conditions: compiled from peer-reviewed sources (287 compounds) ref the 18 original articles; cited from earlier work

SMILES | Class (MPro activity class)
CC(C)CC(NC(=O)OCc1ccccc1)C(=O)NC(CC(C)C)C(=O)NC(CC1CCNC1=O)C(=O)C(=O)NC1CC1 (centres unmarked) [UAWJ248] | 1 (Compounds with IC50 < 10 µM or with a percentage of enzyme inhibition >50% at 10 µM were labelled as ACTIVE)
CCCC(NC(=O)C(CC(C)C)NC(=O)OCc1ccccc1)C(=O)C(=O)NCc1ccccc1 (centres unmarked) [UAWJ257] | 0 (compounds with IC50 > 20 μM, percentage inhibition <80% at 20 µM or 50 μM, or percentage enzyme inhibition <50% at 10 µM were labelled as INACTIVE)
CCOC(=O)c1c(CSc2ccccc2)n(C)c2cc(Br)c(O)c(CN(C)C)c12 [Umifenovir] | 0 (compounds with IC50 > 20 μM, percentage inhibition <80% at 20 µM or 50 μM, or percentage enzyme inhibition <50% at 10 µM were labelled as INACTIVE)
Cc1cc(Cn2nnc3c(-c4ccco4)nc(N)nc32)ccc1N [VIPADENANT] | 0 (compounds with IC50 > 20 μM, percentage inhibition <80% at 20 µM or 50 μM, or percentage enzyme inhibition <50% at 10 µM were labelled as INACTIVE)
CCn1c(=O)c(-c2cc[nH]n2)cc2c(C)nc(N)nc21 [VOXTALISIB] | 0 (compounds with IC50 > 20 μM, percentage inhibition <80% at 20 µM or 50 μM, or percentage enzyme inhibition <50% at 10 µM were labelled as INACTIVE)
C[C@H](NC(=O)/C(C#N)=C/c1cccc(Br)n1)c1ccccc1 [WP1066] | 0 (compounds with IC50 > 20 μM, percentage inhibition <80% at 20 µM or 50 μM, or percentage enzyme inhibition <50% at 10 µM were labelled as INACTIVE)
COc1c(O)cc(O)c2c(=O)cc(-c3ccccc3)oc12 [Wogonin] | 0 (compounds with IC50 > 20 μM, percentage inhibition <80% at 20 µM or 50 μM, or percentage enzyme inhibition <50% at 10 µM were labelled as INACTIVE)
COc1c(O[C@@H]2O[C@H](C(=O)O)[C@@H](O)[C@H](O)[C@H]2O)cc(O)c2c(=O)cc(-c3ccccc3)oc12 [Wogonoside] | 0 (compounds with IC50 > 20 μM, percentage inhibition <80% at 20 µM or 50 μM, or percentage enzyme inhibition <50% at 10 µM were labelled as INACTIVE)
CC(NC(=O)C(Cc1ccccc1)NC(=O)OCc1ccccc1)C(=O)CF (centres unmarked) [Z-FA-FMK] | 0 (compounds with IC50 > 20 μM, percentage inhibition <80% at 20 µM or 50 μM, or percentage enzyme inhibition <50% at 10 µM were labelled as INACTIVE)
CC(C)C[C@H](NC(=O)[C@H](Cc1ccccc1)NC(=O)c1cnccn1)B(O)O [bortezomib] | 0 (compounds with IC50 > 20 μM, percentage inhibition <80% at 20 µM or 50 μM, or percentage enzyme inhibition <50% at 10 µM were labelled as INACTIVE)
CC(C)C[C@H](NC(=O)[C@H](CCc1ccccc1)NC(=O)CN1CCOCC1)C(=O)N[C@@H](Cc1ccccc1)C(=O)N[C@@H](CC(C)C)C(=O)[C@@]1(C)CO1 [carfilzomib] | 0 (compounds with IC50 > 20 μM, percentage inhibition <80% at 20 µM or 50 μM, or percentage enzyme inhibition <50% at 10 µM were labelled as INACTIVE)
CC(C)c1nc(CN(C)C(=O)N[C@@H](CCN2CCOCC2)C(=O)N[C@H](CC[C@H](Cc2ccccc2)NC(=O)OCc2cncs2)Cc2ccccc2)cs1 [cobicistat] | 1 (Compounds with IC50 < 10 µM or with a percentage of enzyme inhibition >50% at 10 µM were labelled as ACTIVE)
N#Cc1ccccc1-c1cc(-c2cccc(Cl)c2)c(=O)n(-c2cccnc2)c1 [compound 2] | 1 (Compounds with IC50 < 10 µM or with a percentage of enzyme inhibition >50% at 10 µM were labelled as ACTIVE)
N#Cc1ccccc1-c1cc(-c2cc(Cl)cc(Cl)c2)c(=O)n(-c2cccnc2)c1 [compound 4] | 1 (Compounds with IC50 < 10 µM or with a percentage of enzyme inhibition >50% at 10 µM were labelled as ACTIVE)
COCCOc1cc(Cl)cc(-c2cc(-c3ccccc3C#N)cn(-c3cccnc3)c2=O)c1 [compound 6] | 1 (Compounds with IC50 < 10 µM or with a percentage of enzyme inhibition >50% at 10 µM were labelled as ACTIVE)
N#Cc1ccccc1-c1cc(-c2cc(Cl)cc(OCc3ccccc3)c2)c(=O)n(-c2cccnc2)c1 [compound 7] | 1 (Compounds with IC50 < 10 µM or with a percentage of enzyme inhibition >50% at 10 µM were labelled as ACTIVE)
N#Cc1ccccc1-c1cc(-c2cc(Cl)cc(OCCc3ccccc3)c2)c(=O)n(-c2cccnc2)c1 [compound 8] | 1 (Compounds with IC50 < 10 µM or with a percentage of enzyme inhibition >50% at 10 µM were labelled as ACTIVE)
CCCOc1cc(Cl)cc(-c2cc(-c3ccccc3C#N)cn(-c3cncnc3)c2=O)c1 [compound 9] | 1 (Compounds with IC50 < 10 µM or with a percentage of enzyme inhibition >50% at 10 µM were labelled as ACTIVE)
COc1cc(Cl)cc(-c2cc(-c3c[nH]c(=O)[nH]c3=O)cn(-c3cccnc3)c2=O)c1 [compound 10] | 1 (Compounds with IC50 < 10 µM or with a percentage of enzyme inhibition >50% at 10 µM were labelled as ACTIVE)
CCCOc1cc(Cl)cc(-c2cc(-c3c[nH]c(=O)[nH]c3=O)cn(-c3cccnc3)c2=O)c1 [compound 11] | 1 (Compounds with IC50 < 10 µM or with a percentage of enzyme inhibition >50% at 10 µM were labelled as ACTIVE)
O=C(C=Cc1ccccc1)NC(CC1CCCCC1)C(=O)NC(CC1CCNC1=O)C(=O)C(=O)NCc1ccccc1 (centres unmarked) [compound 11r] | 1 (Compounds with IC50 < 10 µM or with a percentage of enzyme inhibition >50% at 10 µM were labelled as ACTIVE)
CCCCOc1cc(Cl)cc(-c2cc(-c3c[nH]c(=O)[nH]c3=O)cn(-c3cccnc3)c2=O)c1 [compound 12] | 1 (Compounds with IC50 < 10 µM or with a percentage of enzyme inhibition >50% at 10 µM were labelled as ACTIVE)
CCCCCOc1cc(Cl)cc(-c2cc(-c3c[nH]c(=O)[nH]c3=O)cn(-c3cccnc3)c2=O)c1 [compound 13] | 1 (Compounds with IC50 < 10 µM or with a percentage of enzyme inhibition >50% at 10 µM were labelled as ACTIVE)
CC(C)(C)OC(=O)Nc1cccn(C(CC2CC2)C(=O)NC(CC2CCNC2=O)C(=O)C(=O)NC2CC2)c1=O (centres unmarked) [compound 13b] | 1 (Compounds with IC50 < 10 µM or with a percentage of enzyme inhibition >50% at 10 µM were labelled as ACTIVE)
O=c1[nH]cc(-c2cc(-c3cc(Cl)cc(OCc4ccccc4)c3)c(=O)n(-c3cccnc3)c2)c(=O)[nH]1 [compound 14] | 1 (Compounds with IC50 < 10 µM or with a percentage of enzyme inhibition >50% at 10 µM were labelled as ACTIVE)
O=c1[nH]cc(-c2cc(-c3cc(Cl)cc(OCCc4ccccc4)c3)c(=O)n(-c3cccnc3)c2)c(=O)[nH]1 [compound 15] | 1 (Compounds with IC50 < 10 µM or with a percentage of enzyme inhibition >50% at 10 µM were labelled as ACTIVE)
Cc1ccccc1COc1cc(Cl)cc(-c2cc(-c3c[nH]c(=O)[nH]c3=O)cn(-c3cccnc3)c2=O)c1 [compound 16] | 1 (Compounds with IC50 < 10 µM or with a percentage of enzyme inhibition >50% at 10 µM were labelled as ACTIVE)
Cc1cccc(COc2cc(Cl)cc(-c3cc(-c4c[nH]c(=O)[nH]c4=O)cn(-c4cccnc4)c3=O)c2)c1 [compound 17] | 1 (Compounds with IC50 < 10 µM or with a percentage of enzyme inhibition >50% at 10 µM were labelled as ACTIVE)
O=c1[nH]cc(-c2cc(-c3cc(Cl)cc(OCc4ccccc4F)c3)c(=O)n(-c3cccnc3)c2)c(=O)[nH]1 [compound 18] | 1 (Compounds with IC50 < 10 µM or with a percentage of enzyme inhibition >50% at 10 µM were labelled as ACTIVE)
